# Source: patent publication US10780069B2, “Use of GC-1 in transplant related population” (University of Pittsburgh—Of the Commonwealth System of …, priority 2017, dated 2020)
# Entries after “also recorded” stand apart in the source; their conditions may differ.
# Test system: β-catenin-TCF4 reporter activity in HepG2 cells (exon-3-deletion mutant of CTNNB1)
# Test: TopFlash reporter assay in HepG2 cells
# Type: cell-based, human
# Conditions: (methods: 5-7 μM, 24 hours), vs DMSO
# Description: Three liver tumor cell lines Hep3B, HepG2 and Snu-398 cells were obtained from ATCC (Manassas, Va.). Cells were transfected simultaneously with Renilla reniformis luciferase (pRL-TK; Promega, Madison, Wis.) as a transfection control and TopFlash firefly luciferase plasmids (Upstate Biotechnology, Lake Placid, N.Y.), which contains three copies of the Tcf/Lef sites upstream of a thymidine kinase (TK) promoter and the firefly luciferase gene using Lipofectamine 2000 (Life Technologies). Twenty-four hours after transfection, cells were treated with either DMSO (Fisher Scientific) or 5-7 μM GC-1 (Medchem Express, Monmouth Junction, N.J.) for 24 hours. Lysates were harvested using the Dual-Luciferase Reporter Assay System (Promega, Madison, Wis.). Firefly luciferase signals were normalized to Renilla luciferase and ratio between groups compared by student's t-test to determine significance. P<0.05 was considered significant.
smiles,measurement,value
"Cc1cc(OCC(=O)O)cc(C)c1Cc1ccc(O)c(C(C)C)c1 [GC-1, Sobetirome]",TopFlash luciferase reporter activity,no significant effect; also recorded: insignificant differences
